Like-named read-outs stand apart in the source and are kept apart here.
How the values were obtained:
Assay type in all cases: in vivo
[1] = tested on: Eggs of Tetranychus Cinnabarinus; experiment: Activity assay of eggs of Tetranychus cinnabarinus (spray method, ovicidal); settings: Tetranychus cinnabarinus; for pest or weed control at 2 µg/mL: concentration 2 mg/L
How it was run: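 Female mites laid eggs on broad bean leaves for 24 h, adults removed, eggs sprayed with compound in DMF (≤10%)/1‰ Tween 80. Held at 26±2° C, 70–80% humidity, 16 h light; unhatched eggs counted dead once blank control hatched. Three replicates.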

[2] = tested on: adult Tetranychus cinnabarinus; experiment: Activity assay of adult Tetranychus cinnabarinus (whole-plant spray on bean seedlings); settings: 48 h; for pest or weed control at 1.25 µg/mL: concentration 1.25 mg/L
How it was run: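 Bean seedlings at two-true-leaf stage, infested with adult mites and base count taken, sprayed whole-plant with compound in DMF (≤10%) diluted in 1‰ Tween 80. Three replicates per treatment kept in standard observation room. Surviving mites counted at 48 h to give death rate.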

[3] = tested on: Tetranychus cinnabarinus Nymphs; experiment: Activity assay of Tetranychus cinnabarinus nymphs (spray on broad bean leaves)
How it was run: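 Compound in DMF (≤10%) diluted in 1‰ Tween 80 water was sprayed onto broad bean leaves carrying nymphs hatched from eggs laid by female adults over 24 h. Kept at 26±2° C., 70%–80% humidity, 16 h light; mortality (no response to touch) assessed after 48 h, three replicates with blank control.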

[4] = concentration 5 mg/L, spray, non-incubated eggs counted as dead, read-out: ovicidal activity
[5] = concentration 2.5 mg/L, read-out: adult mite-killing activity
[6] = 48 h, concentration 2.5 mg/L, read-out: nymph-killing activity
[7] = spray, read-out: ovicidal activity
[8] = read-out: adult mite-killing activity
[9] = 48 h, concentration 2 mg/L, read-out: nymph-killing activity
[10] = eggs, parallel determination, read-out: Death rate (%)
[11] = adult mites, parallel determination, read-out: Death rate (%)
[12] = 48 h, nymphs, concentration 0.5 mg/L, parallel determination, read-out: Death rate (%)
[13] = concentration 2.5 mg/L, 48 h, read-out: nymph-killing activity
[14] = 48 h, read-out: nymph-killing activity

Row | SMILES | pest or weed control at 5 µg/mL [1, 4] [%] | pest or weed control at 2.5 µg/mL [2, 5] [%] | pest or weed control at 2.5 µg/mL [3, 6] [%] | further results
1 | C=CC(=O)OC(C)O/C(=C(/C#N)c1ccc(C(C)(C)C)cc1)c1c(Cl)c(C)nn1CC (stereo not drawn) [Compound 342] | ≥ 90 | ≥ 90 | ≥ 95 | 
2 | CCC(=O)OC(C)O/C(=C(/C#N)c1ccc(C(C)(C)C)cc1)c1c(C)c(C)nn1CC (stereo not drawn) [Compound 402] | ≥ 90 | ≥ 90 | ≥ 95 | pest or weed control at 2 µg/mL [1, 7]: ≥ 90%; pest or weed control at 1.25 µg/mL [2, 8]: ≥ 90%; pest or weed control at 2 µg/mL [3, 9]: ≥ 90%
3 | CCn1nc(C)cc1/C(OCOC(=O)OCCSC)=C(\C#N)c1ccc(C(C)(C)C)cc1 [Compound 567] | ≥ 90 | ≥ 90 | ≥ 95 | 
4 | Cc1nn(C)c(/C(OC(C)OC(=O)CC(C)C)=C(\C#N)c2ccc(C(C)(C)C)cc2)c1Cl (stereo not drawn) [Compound 107] | ≥ 90 | ≥ 90 | ≥ 95 | 
5 | CCn1nc(C)c(C)c1/C(OCOC(=O)C(C)C)=C(\C#N)c1ccc(C(C)(C)C)cc1 [Compound 379] | ≥ 90 | ≥ 90 | ≥ 95 | 
6 | Cc1cc(/C(OCOC(=O)C2CC2)=C(\C#N)c2ccc(C(C)(C)C)cc2)n(C)n1 [Compound 9] | ≥ 90 | ≥ 90 | ≥ 95 | 
7 | CCC(=O)OC(C)O/C(=C(/C#N)c1ccc(C(C)(C)C)cc1)c1cc(C)nn1CC (stereo not drawn) [Compound 252] | ≥ 90 | ≥ 90 | ≥ 95 | pest or weed control at 2 µg/mL [1, 7]: ≥ 90%; pest or weed control at 2 µg/mL [1, 10]: 100%; pest or weed control at 1.25 µg/mL [2, 11]: 100%; pest or weed control at 1.25 µg/mL [2, 8]: ≥ 90%; pest or weed control at 2 µg/mL [3, 9]: ≥ 90%; pest or weed control at 0.5 µg/mL [3, 12]: 100%
8 | CCn1nc(C)c(Cl)c1/C(OC(C)OC(=O)C(F)(F)F)=C(\C#N)c1ccc(C(C)(C)C)cc1 (stereo not drawn) [Compound 338] | ≥ 90 | ≥ 90 | ≥ 95 | 
9 | CCn1nc(C)cc1/C(OC(C)OC(=O)Cc1ccccc1)=C(\C#N)c1ccc(C(C)(C)C)cc1 (stereo not drawn) [Compound 265] | ≥ 90 | ≥ 90 |  | pest or weed control at 2.5 µg/mL [3, 13]: ≥ 95%
10 | Cc1cc(/C(OC(C)OC(=O)CF)=C(\C#N)c2ccc(C(C)(C)C)cc2)n(C)n1 (stereo not drawn) [Compound 37] |  |  |  | pest or weed control at 5 µg/mL ([1]; read-out: ovicidal activity): ≥ 90%; pest or weed control at 2.5 µg/mL [2, 8]: ≥ 90%; pest or weed control at 2.5 µg/mL [3, 14]: ≥ 95%
11 | CCn1nc(C)cc1/C(OC(C)OC(=O)C(F)(F)F)=C(\C#N)c1ccc(C(C)(C)C)cc1 (stereo not drawn) [Compound 263] | ≥ 90 | ≥ 90 | ≥ 95 | 
12 | CCn1nc(C)cc1/C(OC(C)OC(=O)C(C)C)=C(\C#N)c1ccc(C(C)(C)C)cc1 (stereo not drawn) [Compound 254] | ≥ 90 | ≥ 90 | ≥ 95 | pest or weed control at 2 µg/mL [1, 7]: ≥ 90%; pest or weed control at 2 µg/mL [1, 10]: 99%; pest or weed control at 1.25 µg/mL [2, 11]: 97%; pest or weed control at 1.25 µg/mL [2, 8]: ≥ 90%; pest or weed control at 2 µg/mL [3, 9]: ≥ 90%; pest or weed control at 0.5 µg/mL [3, 12]: 96%
13 | CCn1nc(C)cc1/C(OC(C)OC(=O)OCC(F)(F)F)=C(\C#N)c1ccc(C(C)(C)C)cc1 (stereo not drawn) [Compound 595] | ≥ 90 | ≥ 90 | ≥ 95 | 
14 | C=CC(=O)OCO/C(=C(/C#N)c1ccc(C(C)(C)C)cc1)c1c(Cl)c(C)nn1C [Compound 92] | ≥ 90 | ≥ 90 | ≥ 95 | 
15 | CCn1nc(C)cc1/C(OCOC(=O)CC(C)C)=C(\C#N)c1ccc(C(C)(C)C)cc1 [Compound 232] | ≥ 90 | ≥ 90 | ≥ 95 | 
16 | CCCCCOC(=O)OCO/C(=C(/C#N)c1ccc(C(C)(C)C)cc1)c1cc(C)nn1C [Compound 460] | ≥ 90 | ≥ 90 | ≥ 95 | 
17 | C#CCOC(=O)OCO/C(=C(/C#N)c1ccc(C(C)(C)C)cc1)c1cc(C)nn1C [Compound 476] | ≥ 90 | ≥ 90 | ≥ 95 | 
18 | CCC(=O)OCO/C(=C(/C#N)c1ccc(C(C)(C)C)cc1)c1cc(C)nn1CC [Compound 227] | ≥ 90 | ≥ 90 | ≥ 95 | pest or weed control at 2 µg/mL [1, 7]: ≥ 90%; pest or weed control at 2 µg/mL [1, 10]: 97%; pest or weed control at 1.25 µg/mL [2, 11]: 98%; pest or weed control at 1.25 µg/mL [2, 8]: ≥ 90%; pest or weed control at 2 µg/mL [3, 9]: ≥ 90%; pest or weed control at 0.5 µg/mL [3, 12]: 94%

Row | SMILES | pest or weed control at 5 µg/mL [1, 4] [%] | pest or weed control at 2.5 µg/mL [2, 5] [%] | pest or weed control at 2.5 µg/mL [3, 6] [%] | further results
19 | CC(=O)OCOC(=C(C#N)c1ccc(C(C)(C)C)cc1)c1ccccc1C(F)(F)F [Compound 8-2, reference compound] | < 30 | < 80 | < 80 | pest or weed control at 2 µg/mL [1, 7]: 0%; pest or weed control at 2 µg/mL [1, 10]: 0%; pest or weed control at 1.25 µg/mL [2, 11]: 30%; pest or weed control at 1.25 µg/mL [2, 8]: < 50%; pest or weed control at 0.5 µg/mL ([3]; 48 h, concentration 0.5 mg/L, read-out: nymph-killing activity): < 30%; pest or weed control at 0.5 µg/mL [3, 12]: 0%
20 | Cc1nn(C)c(/C(OCOC(=O)C2CC2)=C(\C#N)c2ccc(C(C)(C)C)cc2)c1Cl [Compound 84] | ≥ 90 | ≥ 90 | ≥ 95 | 
21 | CCCC(=O)OC(C)O/C(=C(/C#N)c1ccc(C(C)(C)C)cc1)c1c(C)c(C)nn1C (stereo not drawn) [Compound 178] | ≥ 90 | ≥ 90 | ≥ 95 | 
22 | Cc1cc(/C(OC(C)OC(=O)OCCCl)=C(\C#N)c2ccc(C(C)(C)C)cc2)n(C)n1 (stereo not drawn) [Compound 494] | ≥ 90 | ≥ 90 | ≥ 95 | 
23 | C#CCOC(=O)OCO/C(=C(/C#N)c1ccc(C(C)(C)C)cc1)c1cc(C)nn1CC [Compound 572] | ≥ 90 | ≥ 90 | ≥ 95 | 
24 | CCn1nc(C)c(Cl)c1/C(OCOC(=O)COC)=C(\C#N)c1ccc(C(C)(C)C)cc1 [Compound 308] | ≥ 90 | ≥ 90 | ≥ 95 | 
25 | CCCCOC(=O)OC(C)O/C(=C(/C#N)c1ccc(C(C)(C)C)cc1)c1cc(C)nn1CC (stereo not drawn) [Compound 584] | ≥ 90 | ≥ 90 | ≥ 95 | 
26 | Cc1cc(/C(OC(C)OC(=O)C(F)(F)F)=C(\C#N)c2ccc(C(C)(C)C)cc2)n(C)n1 (stereo not drawn) [Compound 38] | ≥ 90 | ≥ 90 | ≥ 95 | 
27 | CCn1nc(C)c(C)c1/C(OCOC(=O)CC(C)C)=C(\C#N)c1ccc(C(C)(C)C)cc1 [Compound 382] | ≥ 90 | ≥ 90 | ≥ 95 | 
28 | Cc1nn(C)c(/C(OC(C)OC(=O)Cc2ccccc2)=C(\C#N)c2ccc(C(C)(C)C)cc2)c1Cl (stereo not drawn) [Compound 115] | ≥ 90 | ≥ 90 |  | pest or weed control at 2.5 µg/mL [3, 13]: ≥ 95%
29 | CCn1nc(C)cc1/C(OC(C)OC(=O)OC(C)C)=C(\C#N)c1ccc(C(C)(C)C)cc1 (stereo not drawn) [Compound 582] | ≥ 90 | ≥ 90 | ≥ 95 | 
30 | Cc1nn(C)c(/C(OCOC(=O)CF)=C(\C#N)c2ccc(C(C)(C)C)cc2)c1Cl [Compound 87] |  |  |  | pest or weed control at 5 µg/mL ([1]; read-out: ovicidal activity): ≥ 90%; pest or weed control at 2.5 µg/mL [2, 8]: ≥ 90%; pest or weed control at 2.5 µg/mL [3, 14]: ≥ 95%
31 | C=CC(=O)OCO/C(=C(/C#N)c1ccc(C(C)(C)C)cc1)c1c(C)c(C)nn1C [Compound 167] | ≥ 90 | ≥ 90 | ≥ 95 | 
32 | CCn1nc(C)cc1/C(OCOC(=O)SCC(=O)OC)=C(\C#N)c1ccc(C(C)(C)C)cc1 [Compound 577] | ≥ 90 | ≥ 90 | ≥ 95 | 
33 | CCCCC(=O)OCO/C(=C(/C#N)c1ccc(C(C)(C)C)cc1)c1c(Cl)c(C)nn1C [Compound 81] | ≥ 90 | ≥ 90 | ≥ 95 | 
34 | Cc1nn(C)c(/C(OC(C)OC(=O)C(F)(F)F)=C(\C#N)c2ccc(C(C)(C)C)cc2)c1C (stereo not drawn) [Compound 188] | ≥ 90 | ≥ 90 | ≥ 95 | 
35 | CCn1nc(C)cc1/C(OCOC(=O)C(C)(C)CC)=C(\C#N)c1ccc(C(C)(C)C)cc1 [Compound 241] | ≥ 90 | ≥ 90 | ≥ 95 | pest or weed control at 2 µg/mL [1, 10]: 100%; pest or weed control at 1.25 µg/mL [2, 11]: 100%; pest or weed control at 0.5 µg/mL [3, 12]: 100%
36 | COC(=O)OCO/C(=C(/C#N)c1ccc(C(C)(C)C)cc1)c1cc(C)nn1C [Compound 451] | ≥ 90 | ≥ 90 | ≥ 95 | 
